Data from patent publication US20090093443A1, “COMBINATIONS OF 4- BROMO-2-(4-CHLOROPHENYL)-5-(TRIFLUOROMETHYL)-1H-PYRROLE-3-CARBONITRILE AND BIOCIDAL COMPOUNDS” (JASSEN PHARMACEUTICA N.V., priority 2006, published 2009).

Test system: animal fouling
Experiment: Exposure in the Oosterschelde of painted PVC boards
Details: for Coverage CO (percentage coverage) / Dry weight Dw (dry weight of fouling organisms) / Fresh weight Fw (fresh weight of fouling organisms): 18 weeks exposure, each active 2.78% in dry paint film; for Coverage CO (percentage coverage): mean of front and backsides of panels; for Dry weight Dw (dry weight of fouling organisms) / Fresh weight Fw (fresh weight of fouling organisms): total of front and backsides; for Coverage % Eo (observed efficacy) / Dry weight % Eo (observed efficacy) / Fresh weight % Eo (observed efficacy): fouling inhibition vs control, 18 weeks, each active 2.78% in dry paint; for Coverage % Eo (observed efficacy): by coverage; for Dry weight % Eo (observed efficacy): by dry weight; for Fresh weight % Eo (observed efficacy): by fresh weight
Description: • Test model: exposure in the Oosterschelde of painted PVC boards • Name of the primary compound: 4-bromo-2-(4-chloro-phenyl)-5-(trifluoromethyl)-1H-pyrrole-3-carbonitrile as component (I) • Name of the combination partners: capsaicine as component (II-d); • clonidine as component (II-e); • zosteric acid as component (II-r). • Test formulations: Paint formulation comprising xylene (47.7%), light aromatic solvent naphtha (CAS 64742-95-6) (16.2%), propylene oxide (0.06%), and zinc oxid (2.24%). Paint was diluted with 10% xylene to obtain the wet paint which was applied to the panels. • Dosage: Individual test compounds were added at a concentration of 1.8% by weight in the wet paint, resulting in 2.78% by weight in the dry paint film. • Test specimens: PVC boards with dimensions of 10×2×0.5 cm. […] Percentage coverage of the panels by fouling organisms as estimated visually. • 2. Fresh weight of fouling organisms on panels in gram. • 3. Dry weight of fouling organisms on panels in gram. Synergy evaluation: Synergy was tested according to the method of Limpel (Limpel, L. E., Schuldt, P. H., and Lamont, D. Weed Control Conf. 16: 48-53, 1962) as described in Colby (Colby, S. R., Weeds 15: 20-22, 1967) and Richer (Richer, D. L., Pesticide Science 19: 309-315, 1987). The single active ingredients were applied at a concentration of 2.78% in the dried coating. In the combinations, both actives were applied at 2.78%, resulting in […] of total active ingredient.

Structure (SMILES) | Coverage CO (percentage coverage) [%] | Dry weight Dw (dry weight of fouling organisms) [gram] | Fresh weight Fw (fresh weight of fouling organisms) [gram] | Coverage % Eo (observed efficacy) [%] | Dry weight % Eo (observed efficacy) [%] | Fresh weight % Eo (observed efficacy) [%]
N#Cc1c(-c2ccc(Cl)cc2)[nH]c(C(F)(F)F)c1Br [(I), 4-bromo-2-(4-chlorophenyl)-5-(trifluoromethyl)-1H-pyrrole-3-carbonitrile] | 42.5 | 1.94 | 2.90 | 19.8 | 37.9 | 36.0
COc1cc(CNC(=O)CCCC/C=C/C(C)C)ccc1O [(II-d), capsaicine] | 65.0 | 3.58 | 5.50 | −22.6 | −14.6 | −21.3
Clc1cccc(Cl)c1N=C1NCCN1 [(II-e), clonidine] | 72.5 | 3.92 | 6.10 | −36.8 | −25.6 | −33.8
O=C(O)/C=C/c1ccc(OS(=O)(=O)O)cc1 [(II-r), zosteric acid] | 57.5 | 2.05 | 5.40 | −8.5 | 34.5 | −18.4
